Test results from ChEMBL document CHEMBL1144588, “Synthesis and SAR of 3,5-diamino-piperidine derivatives: novel antibacterial translation inhibitors as aminoglycoside mimetics” (Bioorg Med Chem Lett, 2007).
pIC50: −log10 of the molar value. ≈ marks a conversion by molar mass, not a printed value.

Assays:
Escherichia coli = experiment: Inhibition of protein synthesis in Escherichia coli by coupled transcription-translation assay; assay type: functional, organism-based
Staphylococcus aureus = experiment: Antibacterial activity against Staphylococcus aureus ATCC 25923; assay type: functional
Pseudomonas aeruginosa = experiment: Antimicrobial activity against Pseudomonas aeruginosa; assay type: functional

| SMILES | pIC50 (Escherichia coli) | MIC (Staphylococcus aureus) | MIC90 (Pseudomonas aeruginosa) |
| --- | --- | --- | --- |
| Cc1ccc(S(=O)(=O)N(Cc2ccccc2)c2ccc(Nc3nc(N4C[C@H](N)C[C@H](N)C4)nc(N4C[C@H](N)C[C@H](N)C4)n3)cc2O)cc1 | 5.52 | 8 µg/mL (≈ 11.9 µM) | – |
| NCCN(CCN)c1nc(Nc2ccc(NC(=O)c3ccc4ccccc4c3O)cc2)nc(N(CCN)CCN)n1 | 5.15 | – | – |
| N[C@@H]1C[C@H](N)CN(c2nc(Nc3ccc(NC(=O)c4ccc5ccccc5c4O)cc3)nc(N3CCCC(O)C3)n2)C1 (some centres undefined) | 3.51 | 16 µg/mL (≈ 28.1 µM) | – |
| NC[C@H]1[C@@H](O)CCN1c1nc(Nc2ccc(NC(=O)c3ccc4ccccc4c3O)cc2)nc(N2C[C@H](N)C[C@H](N)C2)n1 | 5.00 | 16 µg/mL (≈ 27.4 µM) | – |
| NC[C@@H]1CN(c2nc(Nc3ccc(NC(=O)c4ccc(Cl)cc4)c(O)c3)nc(N3C[C@H](N)C[C@H](N)C3)n2)CC[C@@H]1O | 4.51 | 32 µg/mL (≈ 54.9 µM) | – |
| Cc1ccc(S(=O)(=O)N(Cc2ccccc2)c2ccc(Nc3nc(N4C[C@H](N)C[C@H](N)C4)nc(N4C[C@@H](N)C[C@H]4CN)n3)cc2O)cc1 | 4.89 | 2 µg/mL (≈ 2.97 µM) | – |
| Cc1ccc(S(=O)(=O)N(Cc2ccccc2)c2ccc(Nc3nc(N4C[C@H](N)C[C@H](N)C4)nc(N4C[C@@H](N)[C@@H](N)C4)n3)cc2O)cc1 | 4.44 | 16 µg/mL (≈ 24.2 µM) | – |
| NC[C@@H]1CN(c2nc(Nc3ccc(NC(=O)c4ccc5ccccc5c4O)cc3)nc(N3C[C@H](N)C[C@H](N)C3)n2)CC[C@@H]1O | 4.68 | 16 µg/mL (≈ 26.7 µM) | – |
| NCCN(CCN)c1nc(Nc2ccc(NC(=O)c3ccc(Cl)cc3)c(O)c2)nc(N2C[C@H](N)C[C@H](N)C2)n1 | 4.74 | 32 µg/mL (≈ 57.5 µM) | – |
| NC1CN(c2nc(Nc3ccc(NC(=O)c4ccc(Cl)cc4)c(O)c3)nc(N3C[C@H](N)C[C@H](N)C3)n2)C1 | 4.85 | – | – |
| Cc1ccc(S(=O)(=O)N(Cc2ccccc2)c2ccc(Nc3nc(N4C[C@H](N)C[C@H](N)C4)nc(N4CC[C@H](O)[C@H](CN)C4)n3)cc2O)cc1 | 4.57 | 16 µg/mL (≈ 23.2 µM) | – |
| N[C@@H]1C[C@H](N)CN(c2nc(Nc3ccc(NC(=O)c4ccc(Cl)cc4)c(O)c3)nc(N3C[C@H](N)C[C@H](N)C3)n2)C1 | – | 16 µg/mL (≈ 28.2 µM) | 8 µg/mL (≈ 14.1 µM) |
| NC1CCCN(c2nc(Nc3ccc(Cl)c(Cl)c3)nc(N3CCCC(N)C3)n2)C1 (centres undefined) | < 3.00 | – | – |
| CN[C@@H]1C[C@H](NC)CN(c2nc(Nc3ccc(NC(=O)c4ccc5ccccc5c4O)cc3)nc(N3C[C@H](N)C[C@H](N)C3)n2)C1 | 5.10 | 8 µg/mL (≈ 13.1 µM) | – |
| NCCN(CCN)c1nc(Nc2ccc(NC(=O)c3ccc4ccccc4c3O)cc2)nc(N2C[C@H](N)C[C@H](N)C2)n1 | 5.00 | 8 µg/mL (≈ 14 µM) | – |
| Cc1ccc(S(=O)(=O)N(Cc2ccccc2)c2ccc(Nc3nc(N4C[C@H](N)C[C@H](N)C4)nc(N4C[C@@H](O)[C@@H](O)C4)n3)cc2O)cc1 | 4.37 | 32 µg/mL (≈ 48.4 µM) | – |
| NC[C@H]1[C@@H](O)CCN1c1nc(Nc2ccc(NC(=O)c3ccc(Cl)cc3)c(O)c2)nc(N2C[C@H](N)C[C@H](N)C2)n1 | 4.72 | 32 µg/mL (≈ 56.2 µM) | – |
| Cc1ccc(S(=O)(=O)N(Cc2ccccc2)c2ccc(Nc3nc(N4C[C@H](N)C[C@H](N)C4)nc(N4C[C@@H](N)C[C@H]4CO)n3)cc2O)cc1 | 4.82 | 8 µg/mL (≈ 11.9 µM) | – |
| NC[C@@H]1C[C@H](CN)CN(c2nc(Nc3ccc(NC(=O)c4ccc5ccccc5c4O)cc3)nc(N3C[C@H](N)C[C@H](N)C3)n2)C1 | 5.10 | 4 µg/mL (≈ 6.54 µM) | – |
| O=C(N[C@H](CO)[C@H](O)c1ccc([N+](=O)[O-])cc1)C(Cl)Cl [CHLORAMPHENICOL] | – | 8 µg/mL (≈ 24.8 µM) | – |
| NC[C@@H]1C[C@H](N)CN1c1nc(Nc2ccc(NC(=O)c3ccc4ccccc4c3O)cc2)nc(N2C[C@H](N)C[C@H](N)C2)n1 | 5.00 | 2 µg/mL (≈ 3.43 µM) | – |
| N[C@@H]1C[C@H](N)CN(c2ncnc(Nc3ccc(NC(=O)c4ccc5ccccc5c4O)cc3)n2)C1 | 4.80 | – | – |
| Cc1ccc(S(=O)(=O)N(Cc2ccccc2)c2ccc(Nc3nc(N4CCCC(O)C4)nc(N4C[C@H](N)C[C@H](N)C4)n3)cc2O)cc1 (some centres undefined) | 4.36 | 8 µg/mL (≈ 12.1 µM) | – |

| SMILES | pIC50 (Escherichia coli) | MIC (Staphylococcus aureus) | MIC90 (Pseudomonas aeruginosa) |
| --- | --- | --- | --- |
| N[C@@H]1C[C@H](N)CN(c2nc(Nc3ccc(NC(=O)c4ccc(Cl)cc4)c(O)c3)nc(N3C[C@@H](N)C[C@@H](O)C3)n2)C1 | 4.40 | 64 µg/mL (≈ 112 µM) | – |
| NC1CCN(c2nc(Nc3ccc(Cl)c(Cl)c3)nc(N3CCC(N)CC3)n2)CC1 | 3.10 | – | – |
| Cc1ccc(S(=O)(=O)N(Cc2ccccc2)c2ccc(Nc3nc(N(CCN)CCN)nc(N4C[C@H](N)C[C@H](N)C4)n3)cc2O)cc1 | 6.00 | 8 µg/mL (≈ 12.1 µM) | – |
| N[C@@H]1C[C@H](N)CN(c2nc(Nc3ccc(NC(=O)c4ccc(Cl)cc4)c(O)c3)nc(N3C[C@@H](N)C[C@H]3CO)n2)C1 | 4.89 | 32 µg/mL (≈ 56.2 µM) | – |
| CN[C@@H]1C[C@H](NC)CN(c2nc(Nc3ccc(Cl)c(Cl)c3)nc(N3C[C@H](NC)C[C@H](NC)C3)n2)C1 | 5.30 | – | – |
| Cc1ccc(S(=O)(=O)N(Cc2ccccc2)c2ccc(Nc3nc(N4CCC(C(N)=O)CC4)nc(N4C[C@H](N)C[C@H](N)C4)n3)cc2O)cc1 | < 3.00 | – | – |
| NC[C@@H]1C[C@H](CN)CN(c2nc(Nc3ccc(NC(=O)c4ccc(Cl)cc4)c(O)c3)nc(N3C[C@H](N)C[C@H](N)C3)n2)C1 | 4.96 | 16 µg/mL (≈ 26.8 µM) | – |
| Cc1ccc(S(=O)(=O)N(Cc2ccccc2)c2ccc(Nc3nc(N4C[C@H](N)C[C@H](N)C4)nc(N4CC[C@H](O)[C@@H]4CN)n3)cc2O)cc1 | 4.68 | 8 µg/mL (≈ 11.9 µM) | – |
| N[C@@H]1C[C@H](N)CN(c2nc(Nc3ccc(NC(=O)c4ccc5ccccc5c4O)cc3)nc(N3C[C@@H](O)[C@@H](O)C3)n2)C1 | 4.14 | 32 µg/mL (≈ 56 µM) | – |
| Cc1ccc(S(=O)(=O)N(Cc2ccccc2)c2ccc(Nc3nc(N4C[C@H](N)C[C@H](N)C4)nc(N4C[C@@H](N)C[C@@H](O)C4)n3)cc2O)cc1 | 4.77 | 16 µg/mL (≈ 23.7 µM) | – |
| N[C@@H]1C[C@H](N)CN(c2nc(Nc3ccc(NC(=O)c4ccc(Cl)cc4)c(O)c3)nc(N3C[C@@H](N)[C@@H](N)C3)n2)C1 | 4.24 | 16 µg/mL (≈ 28.9 µM) | – |
| NC[C@@H]1C[C@H](N)CN1c1nc(Nc2ccc(NC(=O)c3ccc(Cl)cc3)c(O)c2)nc(N2C[C@H](N)C[C@H](N)C2)n1 | 4.92 | 32 µg/mL (≈ 56.3 µM) | – |
| NC[C@@H]1C[C@H](N)CN1c1nc(Nc2ccc(NC(=O)c3ccc4ccccc4c3O)cc2)nc(N2C[C@H](N)C[C@@H]2CN)n1 | 5.10 | – | – |
| N[C@@H]1C[C@H](O)CN(c2nc(Nc3ccc(NC(=O)c4ccc5ccccc5c4O)cc3)nc(N3C[C@@H](N)C[C@@H](O)C3)n2)C1 | 4.00 | – | – |
| Cc1ccc(S(=O)(=O)N(Cc2ccccc2)c2ccc(Nc3nc(N4CC(N)C4)nc(N4C[C@H](N)C[C@H](N)C4)n3)cc2O)cc1 | 4.96 | 160 µg/mL (≈ 254 µM) | – |
| N[C@@H]1C[C@H](N)CN(c2nc(Nc3ccc(NC(=O)c4ccc5ccccc5c4O)cc3)nc(N3C[C@@H](N)C[C@H]3CO)n2)C1 | 4.72 | 8 µg/mL (≈ 13.7 µM) | – |
| N[C@@H]1C[C@H](N)CN(c2nc(Nc3ccc(NC(=O)c4ccc5ccccc5c4O)cc3)nc(N3C[C@@H](N)C[C@@H](O)C3)n2)C1 | 4.77 | 8 µg/mL (≈ 13.7 µM) | – |
| N[C@@H]1C[C@H](N)CN(c2nc(Nc3ccc(NC(=O)c4ccc5ccccc5c4O)cc3)nc(N3C[C@H](N)C[C@H](N)C3)n2)C1 | 5.15 | – | – |
| NC(=O)C1CCN(c2nc(Nc3ccc(NC(=O)c4ccc(Cl)cc4)c(O)c3)nc(N3C[C@H](N)C[C@H](N)C3)n2)CC1 | < 3.00 | – | – |
| Cc1ccc(S(=O)(=O)N(Cc2ccccc2)c2ccc(Nc3nc(N4C[C@H](N)C[C@H](N)C4)nc(N4C[C@H](CN)C[C@H](CN)C4)n3)cc2O)cc1 | 6.00 | 8 µg/mL (≈ 11.4 µM) | – |
| N[C@@H]1C[C@H](N)CN(c2nc(Nc3ccc(NC(=O)c4ccc(Cl)cc4)c(O)c3)nc(N3CCCC(O)C3)n2)C1 (some centres undefined) | 4.40 | 32 µg/mL (≈ 57.8 µM) | – |
| N[C@@H]1C[C@H](N)CN(c2nc(Nc3ccc(NC(=O)c4ccc(Cl)cc4)c(O)c3)nc(N3C[C@@H](O)[C@@H](O)C3)n2)C1 | 4.11 | 64 µg/mL (≈ 115 µM) | – |
| N[C@@H]1C[C@H](N)CN(c2nc(Nc3ccc(Cl)c(Cl)c3)nc(N3C[C@H](N)C[C@H](N)C3)n2)C1 | 5.00 | – | – |
